We go through 1 compound from publication PMC12607897, “Inhibition of HIV-1 replication by primer RNA packaging inhibitors” (mBio, 2025).

Assay [1] has as its system HIV-1 NL4-3 virus produced in MT4 cells. Nature of the assay: infectivity of virus particles by the CPRG method in HeLa P4 cells. Type of assay: cell-based. Conditions: viruses recovered after MT4 cells were exposed to 10 µM drugs. The procedure: We used the CPRG method developed in HeLa P4 cells grown in 96-well plates to measure the infectivity of virus particles, as low levels of virus were recovered after exposure of infected MT4 cells to different drug concentrations. In this assay, expression of the LacZ gene is under the control of the HIV-1 LTR, and its level of trans-activation correlates with the level of expression of HIV-1 Tat. HeLa P4 cells were incubated with normalized amounts of virus as measured by the P24 assay, and the expression of β-galactosidase was determined by the CPRG assay (Fig. 5).
Fig 5 Infectivity of newly formed HIV-1 particles produced in the presence of drugs. MT4 cells were infected with the NL4-3 virus. […] The infectivity of HIV-1 viruses was determined by the CPRG method. […]
Replication of the NL4-3 virus was determined either by the ELISA technique or in HeLa-P4 cells by the CPRG method as described previously ([29]). These are HeLa CD4 LTR-lacZ cells in which the expression of lacZ is induced by the HIV transactivator Tat, allowing precise quantification of the infectivity of HIV-1. The viral titer was determined by quantifying β-galactosidase activity in HeLa-P4 lysates in a colorimetric assay based on the cleavage of chlorophenol red-β-D-galactopyranoside (CPRG) by β-galactosidase. The cytotoxicity is evaluated by the MTT assay.

In assay [2] the test system is HIV-1 NL4-3 virus particles. Nature of the assay: digital PCR / RT-dPCR of minus-strand strong stop cDNA and viral RNA in particles. Type of assay: cell-based. Conditions: 10 µM drug, 72 and 96 h after infection. An excerpt: We used digital RT-PCR and digital PCR to determine the viral mRNA and minus-strand strong stop viral cDNA content of the particles (Fig. 7; Fig. S6). The amount of early viral cDNA produced in the HIV-1 particles is a measure of the efficiency of the initiation step of reverse transcription, which requires the packaging of tRNA3^Lys at the budding step, the primer for cDNA synthesis.
Fig 7 Effect of drugs on viral synthesis of minus-strand strong stop cDNA. Viruses were harvested from the culture medium after 72 (red) or 96 h (blue) of infection of MT4 cells with NL4-3 viruses. Minus-strand strong stop viral DNA and viral RNA (vRNA) were quantified by digital PCR and RT-dPCR, respectively. Viruses were harvested from cultures grown in the presence of 10 µM of azelastine (Aze), lacidipine (Lac), or cilnidipine (Cil), or H2O or DMSO as controls. Values and the associated standard deviations (n = 3) are expressed as the ratios of the values obtained for the H2O or DMSO controls. […].
MT4 cells (2 × 10^6 cells) were infected with the NL4-3 viruses. After 4–5 h of infection at 37°C, cells were twice washed with PBS, incubated 5 min at 37°C in 0.25% trypsin-EDTA solution (Gibco) to eliminate viruses remaining in the medium, incubated 5 min at 37°C in complete RPMI medium, twice washed with PBS, resuspended in RPMI medium at a cell density of 200 × 10^3 cells/mL and incubated with 10 µM of azelastine (25 mM stock solution in H20), or lacidipine and cilnidipine (25 mM stock solution in DMSO). A second aliquot of the inhibitors was added to the culture medium 48 h after infection. […] All RNA and DNA quantifications were performed by digital PCR and RT-qPCR on a QIAcuity instrument (QIAGEN) using 26K 24-well nanoplates and the QIAcuity Probe PCR and One-Step Viral RT-PCR kits. Primers and probes were 5′-[…], 5′-[…], and 5′-[…] for the quantification of minus-strand strong-stop cDNA, and 5′-[…], 5′-[…], and 5′-[…] CGT for viral RNA quantification.

Consider `CN1CCCC(n2nc(Cc3ccc(Cl)cc3)c3ccccc3c2=O)CC1` (centres unmarked) [azelastine], for which the “infectivity of viruses compared with wild-type viruses” value in assay [1] was “less than 4%”. Further, in assay [2], the “minus-strand strong stop cDNA in viruses, normalized to viral RNA” value is listed as “significantly reduced”.
